Experimental data reported in patent US8795632B2, “Disease animal model for chronic pain” (Astellas Pharma Inc., priority 2008, dated 2014).

Experiments:
fibromyalgia patients = settings: cited from earlier work; for pain symptom score of fibromyalgia patients in comparison with the placebo group: Non-patent References 7 to 9; for effect in the treatment of fibromyalgia patients (clinical trial): literature clinical trials
[1] = tested on: reserpine repeated administration-induced skin pain sensation threshold value reduction; assay: Effects of drugs on reserpine repeated administration-induced reduction of skin pain sensation threshold value; format: in vivo, rat; settings: male rats, pregabalin, diclofenac oral, pramipexole subcutaneous; for effect on reserpine repeated administration-induced skin pain sensation threshold value reduction: 5 days after final reserpine (1 mg/kg s.c. x 3 days), 30-240 min after drug, duloxetine; for dose at which the effect was statistically significant by the index of skin pain sensation threshold value: 5 days after final reserpine, two-way analysis of variance and Bonferroni
[2] = tested on: reserpine repeated administration-induced muscle pressure pain threshold value reduction; assay: Effects of drugs on reserpine repeated administration-induced reduction of muscle pressure pain threshold value; format: in vivo, rat; settings: for effect on reserpine repeated administration-induced muscle pressure pain threshold value reduction / dose at which the effect was statistically significant by the index of muscle pressure pain threshold value: male rats, pregabalin, duloxetine, diclofenac oral, pramipexole subcutaneous; for effect on reserpine repeated administration-induced muscle pressure pain threshold value reduction: 5 days after final reserpine (1 mg/kg s.c. x 3 days), 30-240 min after drug; for dose at which the effect was statistically significant by the index of muscle pressure pain threshold value: 5 days after final reserpine, two-way analysis of variance and Bonferroni; for efficacy on this disease animal model (reserpine-treated mammal): summary statement, chronic muscle pain and tactile allodynia model
Procedure: Male Sprague-Dawley rats (Japan SLC, Hamamatsu, Japan) were used as the animal. A total of 30 rats were used for each drug. As shown in Example 1, 1 mg/kg of reserpine was repeatedly administered subcutaneously on the back of 24 rats once a day for 3 days to induce reduction of the muscle pressure pain threshold value and skin pain sensation threshold value. The other 6 rats were subjected to the test as a healthy control group without carrying out the reserpine treatment.
All of the evaluations of drug effects were carried out 5 days after the final administration of reserpine.
On the day of drug effect evaluation (5 days after the final administration of reserpine), the muscle pressure pain threshold value and skin pain sensation threshold value were firstly measured on all of the rats (24 reserpine-treated rats and 6 healthy rats). The 24 reserpine-treated rats were divided into 4 groups based on the doses of the test drug, and the muscle pressure pain threshold value and skin pain sensation threshold value were measured after 30, 60, 120 or 240 minutes of the drug or solvent administration. On the 6 healthy rats, the drug administration was not carried out, but only the measurement of muscle pressure pain threshold value and skin pain sensation threshold value was carried out.
All of the measured values were expressed as average value±standard error. Statistical significance test of the measured values between the test drug administration groups and the solvent administration group at each point of time was carried out by a two-way analysis of variance and the Bonferroni method. Probability value (P) of less than 5% was judged as statistically significant (P<0.05 was expressed as * in the graphs).

SMILES | pain symptom score of fibromyalgia patients in comparison with the placebo group (fibromyalgia patients) | effect in the treatment of fibromyalgia patients (clinical trial) (fibromyalgia patients) | effect on reserpine repeated administration-induced skin pain sensation threshold value reduction [1] | effect on reserpine repeated administration-induced muscle pressure pain threshold value reduction [2] | dose at which the effect was statistically significant by the index of muscle pressure pain threshold value [2] | efficacy on this disease animal model (reserpine-treated mammal) [2] | dose at which the effect was statistically significant by the index of skin pain sensation threshold value [1]
CNCC[C@H](Oc1cccc2ccccc12)c1cccs1 [duloxetine] | alleviates the pain symptom score of fibromyalgia patients statistically significantly | usefulness has been proved | showed a tendency to recover the reserpine repeated administration-induced skin pain sensation pain threshold value reduction but was not statistically significant | statistically significantly recovered | 30 mg/kg | effective | 
COc1ccc2cc([C@H](C)C(=O)O)ccc2c1 [naproxen] |  | do not have a significant effect |  |  |  |  | 
CC(C)Cc1ccc(C(C)C(=O)O)cc1 (stereo not shown) [ibuprofen] |  | do not have a significant effect |  |  |  |  | 
O=C(O)Cc1ccccc1Nc1c(Cl)cccc1Cl [diclofenac] |  |  | did not recover | did not recover | > 10 mg/kg | not effective | > 10 mg/kg
CC(C)C[C@H](CN)CC(=O)O [pregabalin] | alleviates the pain symptom score of fibromyalgia patients statistically significantly | usefulness has been proved | dose-dependently recovered | dose-dependently recovered |  | effective | 30 mg/kg
